Patent US5834458A, “Heterocyclic compounds and their use” (Eli Lilly and Company, priority 1996, dated 1998)

Target: muscarinic receptor in the CNS
Assay: not given
Settings: first of three sites (high affinity); read-out: affinity of site labeled by ^3 H-Oxo; cited from earlier work

SMILES	Kd [nM]
C[N+](C)(C)CC#CCN1CCCC1=O [^3 H-Oxo, ^3 H-Oxotremorine-M]	1.8

Same assay, conditions: second of three sites (medium affinity); read-out: affinity of site labeled by ^3 H-Oxo; cited from earlier work

SMILES	Kd [nM]
C[N+](C)(C)CC#CCN1CCCC1=O [^3 H-Oxo, ^3 H-Oxotremorine-M]	20

Same assay, conditions: third of three sites; not determined under the present experimental conditions; read-out: affinity of site labeled by ^3 H-Oxo; cited from earlier work

SMILES	Kd [nM]
C[N+](C)(C)CC#CCN1CCCC1=O [^3 H-Oxo, ^3 H-Oxotremorine-M]	3000

Target: muscarinic acetylcholine receptors
Assay: inhibition of specific binding of 3H-Oxotremorine-M (3H-Oxo) to rat cortex
Design: species or system rat (male Wistar)
Settings: 3H-Oxotremorine 1.0 nM, 30 min, 25° C., pH 7.4
Source text: The pharmacological properties of the compounds of the invention can be illustrated by determining their capability to inhibit the specific binding of ^3 H-Oxotremorine-M (^3 H-Oxo). Birdsdall N. J. M., Hulme E. C., and Burgen A. S. V. (1980). "The Character of Muscarinic Receptors in Different Regions of the Rat Brain". Proc. Roy. Soc. London (Series B) 207,1.
^3 H-oxo labels muscarinic receptor in the CNS (with a preference for agonist domains of the receptors). Three different sites are labeled by ^3 H-Oxo. […] Using the present experimental conditions only the high and medium affinity sites are determined.
The inhibitory effects of compounds on ^3 H-oxo binding reflects the affinity for muscarinic acetylcholine receptors.
All preparations are performed at 0°-4° C. unless otherwise indicated. Fresh cortex (0.1-1 g) from male Wistar rats (150-250 g) is homogenized for 5-10 s in 10 mL […] Hepes pH: 7.4, with an Ultra-Turrax homogenizer. The homogenizer is rinsed with 10 mL of buffer and the combined suspension centrifuged for 15 min. at 40,000×g. The pellet is washed three times with buffer. In each step the pellet is homogenized as before in 2×10 mL of buffer and centrifuged for 10 min. at 40,000×g.
The final pellet is homogenized in 20 mM Hepes pH: 7.4 (100 mL per g of original tissue) and used for binding assay. Aliquots of 0.5 mL is added 25 μL of test solution and 25 μL of ^3 H-Oxotremorine (1.0 nM, final concentration) mixed and incubated for 30 min. at 25° C. Non-specific binding is determined in triplicate using arecoline (1 μg/mL, final concentration) as the test substance. After incubation samples are added 5 mL of ice-cold buffer and poured directly onto Whatman GF/C glass fiber filters under suction and immediately washed 2 times with 5 mL of ice-cold buffer. The amount of radioactivity on the filters are determined by conventional liquid scintillation counting. Specific binding is total binding minus non specific binding.
Test substances are dissolved in 10 mL water (if necessary heated on a steam-bath for less than 5 min.) at a concentration of 2.2 mg/mL. 25-75% inhibition of specific binding must be obtained before calculation of IC50. The test value will be given as IC50 (the concentration (nM) of the test substance which inhibits the specific binding of ^3 H-oxo by 50%). IC50 =(applied test substance concentration) x([…])nM where Co is specific binding in control assays and Cx is the specific binding in the test assay. (The calculations assume normal mass-action kinetics).

SMILES	IC50 [nM]
CCCCCCOc1nsnc1C1CC2CCC1N(C)C2 (single isomer, unassigned) [Compound 7, ENDO 2-Aza-6-(4-hexyloxy-1,2,5-thiadiaz-3-yl)-2-methyl-bicyclo[2.2.2]octane]	4.8
CCCCCCOc1nsnc1C1CC2CCC1N(C)C2 (single isomer, unassigned) [Compound 8, EXO 2-Aza-6-(4-hexyloxy-1,2,5-thiadiaz-3-yl)-2-methyl-bicyclo[2.2.2]octane]	277
CC(C)CCCSc1nsnc1C1CC2CCC1NC2 (stereo not drawn) [Compound 17, EXO 2-Aza-6-(4-((4-methylpentyl)thio)-1,2,5-thiadiaz-3-yl)-bicyclo[2.2.2]octane]	612
CC(C)CCCSc1nsnc1C1CC2CCC1NC2 (stereo not drawn) [Compound 18, ENDO 2-Aza-6-(4-((4-methylpentyl)thio)-1,2,5-thiadiaz-3-yl)-bicyclo[2.2.2]octane]	17
FC(F)(F)CCCSc1nsnc1C1CC2CCC1NC2 (stereo not drawn) [Compound 20, ENDO 2-Aza-6-(4-((4,4,4-trifluorobutyl)thio)-1,2,5-thiadiaz-3-yl)-bicyclo[2.2.2]octane]	4.8
FC(F)(F)c1ccc(CSc2nsnc2C2CC3CCC2NC3)cc1 (stereo not drawn) [Compound 22, EXO 2-Aza-6-(4-(((4-trifluoromethyl)phenyl)methylthio)-1,2,5-thiadiaz-3-yl)-bicyclo[2.2.2]octane]	680
N#Cc1ccc(CSc2nsnc2C2CC3CCC2NC3)s1 (stereo not drawn) [Compound 25, ENDO 2-Aza-6-(4-((5-cyanothien-2-yl)methylthio)-1,2,5-thiadiaz-3-yl)-bicyclo[2.2.2]octane]	5.4
N#Cc1ccc(CSc2nsnc2C2CC3CCC2NC3)s1 (stereo not drawn) [Compound 26, EXO 2-Aza-6-(4-((5-cyanothien-2-yl)methylthio)-1,2,5-thiadiaz-3-yl)-bicyclo[2.2.2]octane]	31
CCCCCCSc1nsnc1C1CC2CCC1NC2 (stereo not drawn) [Compound 27, EXO 2-Aza-6-(4-hexylthio-1,2,5-thiadiaz-3-yl)-bicyclo[2.2.2]octane]	3
CCCCCCSc1nsnc1C1CC2CCC1NC2 (stereo not drawn) [Compound 28, EXO 2-Aza-6-(4-hexylthio-1,2,5-thiadiaz-3-yl)-bicyclo[2.2.2]octane]	86
CCCCCOc1nsnc1C1CC2CCC1NC2 (stereo not drawn) [Compound 30, ENDO 2-aza-6-(4-pentoxy-1,2,5-thiadiaz-3-yl)-bicyclo[2.2.2]octane]	5.9
CCCCCOc1nsnc1C1CC2CCC1NC2 (stereo not drawn) [Compound 31, EXO 2-aza-6-(4-pentoxy-1,2,5-thiadiaz-3-yl)-bicyclo[2.2.2]octane]	161
FC(F)(F)c1ccc(COc2nsnc2C2CC3CCC2NC3)cc1 (stereo not drawn) [Compound 32, EXO 2-Aza-6-(4-((4-trifluoromethylphenyl)methoxy)-1,2,5-thiadiaz-3-yl)-bicyclo[2.2.2]octane]	335
FC(F)(F)c1ccc(COc2nsnc2C2CC3CCC2NC3)cc1 (stereo not drawn) [Compound 33, EXO 2-Aza-6-(4-((4-trifluoromethylphenyl)methoxy)-1,2,5-thiadiaz-3-yl)-bicyclo[2.2.2]octane]	208
